Experimental data as given in the NIST ThermoML archive (doi:10.1021/je7005055).
± gives the expanded uncertainty stated by the source.

How the values were obtained:
[1] = xn = mol fraction of the nth substance listed; settings: 298.15 K, 101 kPa, Liquid
[2] = 298.15 K; 101.33 kPa; Liquid

CN1CCOCC1 [N-methylmorpholine] + CCO
[1]
Settings	mass density [kg/m3]
x1 = 0.0511	797.55 ± 0.67
x1 = 0.1166	812.41 ± 0.65
x1 = 0.1795	825.38 ± 0.63
x1 = 0.2438	837.23 ± 0.63
x1 = 0.2795	843.43 ± 0.62
x1 = 0.3532	854.69 ± 0.63
x1 = 0.4021	861.24 ± 0.64
x1 = 0.4573	867.56 ± 0.65
x1 = 0.4982	871.73 ± 0.67
x1 = 0.5342	875.35 ± 0.68
x1 = 0.5832	879.41 ± 0.71
x1 = 0.6432	884.36 ± 0.74
x1 = 0.7234	890.96 ± 0.8
x1 = 0.7786	895.53 ± 0.84
x1 = 0.8216	899.13 ± 0.88
x1 = 0.8794	904.05 ± 0.93
x1 = 0.9432	909.42 ± 1
x1 = 0.9832	912.63 ± 1

CN1CCOCC1 [N-methylmorpholine]
Settings	mass density [kg/m3]
[2]	914.06 ± 1.5

CCCCCCCCO [octan-1-ol]
Settings	mass density [kg/m3]
[2]	821.65 ± 0.57

CN1CCOCC1 [N-methylmorpholine] + CCCO
[1]
Settings	mass density [kg/m3]
x1 = 0.0237	803.87 ± 0.78
x1 = 0.1003	816.55 ± 0.78
x1 = 0.1657	826.67 ± 0.78
x1 = 0.2336	836.52 ± 0.78
x1 = 0.2812	843.01 ± 0.79
x1 = 0.3458	851.12 ± 0.8
x1 = 0.3988	857.14 ± 0.81
x1 = 0.4476	861.99 ± 0.82
x1 = 0.5784	874.68 ± 0.86
x1 = 0.6347	879.93 ± 0.88
x1 = 0.7195	888.06 ± 0.92
x1 = 0.7684	892.76 ± 0.94
x1 = 0.8327	898.56 ± 0.97
x1 = 0.8674	901.93 ± 0.99
x1 = 0.9443	908.83 ± 1
x1 = 0.9878	912.75 ± 1.1

CCCCCO [pentan-1-ol]
Settings	mass density [kg/m3]
[2]	810.83 ± 0.59

CN1CCOCC1 [N-methylmorpholine] + CCCCCO
[1]
Settings	mass density [kg/m3]
x1 = 0.0487	813.72 ± 0.67
x1 = 0.1129	820.02 ± 0.67
x1 = 0.1766	826.08 ± 0.67
x1 = 0.2412	832.41 ± 0.68
x1 = 0.2801	836.23 ± 0.69
x1 = 0.3998	847.87 ± 0.72
x1 = 0.4612	854.03 ± 0.73
x1 = 0.5826	866.38 ± 0.78
x1 = 0.6444	872.93 ± 0.81
x1 = 0.7267	881.91 ± 0.86
x1 = 0.7801	887.89 ± 0.89
x1 = 0.8226	892.69 ± 0.92
x1 = 0.8811	899.57 ± 0.96
x1 = 0.9428	907.1 ± 1
x1 = 0.9854	912.11 ± 1.1

CCCCCCO [hexan-1-ol]
Settings	mass density [kg/m3]
[2]	814.95 ± 0.58

CCCO [propan-1-ol]
Settings	mass density [kg/m3]
[2]	799.52 ± 1

CCO [ethanol]
Settings	mass density [kg/m3]
[2]	784.94 ± 0.31

CN1CCOCC1 [N-methylmorpholine] + CCCCCCCCO
[1]
Settings	mass density [kg/m3]
x1 = 0.0461	823.88 ± 0.64
x1 = 0.1101	827.55 ± 0.65
x1 = 0.1862	832.09 ± 0.66
x1 = 0.2381	835.33 ± 0.67
x1 = 0.2848	838.58 ± 0.68
x1 = 0.3484	843.06 ± 0.7
x1 = 0.4029	846.99 ± 0.72
x1 = 0.4899	853.86 ± 0.75
x1 = 0.5121	855.92 ± 0.76
x1 = 0.6012	863.81 ± 0.8
x1 = 0.6547	869.5 ± 0.82
x1 = 0.7213	875.97 ± 0.86
x1 = 0.7831	883.26 ± 0.9
x1 = 0.8353	889.72 ± 0.93
x1 = 0.8958	897.82 ± 0.98
x1 = 0.9541	905.92 ± 1
x1 = 0.9792	909.72 ± 1

CCCCO [butan-1-ol]
Settings	mass density [kg/m3]
[2]	805.92 ± 1

CN1CCOCC1 [N-methylmorpholine] + CCCCCCO
[1]
Settings	mass density [kg/m3]
x1 = 0.0459	818.34 ± 0.66
x1 = 0.1098	823.37 ± 0.66
x1 = 0.1852	829.49 ± 0.67
x1 = 0.2377	833.69 ± 0.68
x1 = 0.2855	837.76 ± 0.69
x1 = 0.3495	843.34 ± 0.7
x1 = 0.4034	848.09 ± 0.72
x1 = 0.4887	855.97 ± 0.75
x1 = 0.5129	858.26 ± 0.75
x1 = 0.5998	866.75 ± 0.79
x1 = 0.6583	872.76 ± 0.82
x1 = 0.7174	879.14 ± 0.85
x1 = 0.7844	886.51 ± 0.9
x1 = 0.8341	892.31 ± 0.93
x1 = 0.8964	899.75 ± 0.98
x1 = 0.9538	907.13 ± 1
x1 = 0.9784	910.69 ± 1

CN1CCOCC1 [N-methylmorpholine] + CCCCO
[1]
Settings	mass density [kg/m3]
x1 = 0.0455	811.49 ± 0.77
x1 = 0.1089	818.95 ± 0.77
x1 = 0.1675	825.55 ± 0.78
x1 = 0.2399	833.8 ± 0.79
x1 = 0.2811	838.33 ± 0.8
x1 = 0.3494	845.7 ± 0.81
x1 = 0.3985	850.99 ± 0.82
x1 = 0.4533	856.71 ± 0.83
x1 = 0.5285	864.54 ± 0.85
x1 = 0.6444	876.67 ± 0.89
x1 = 0.7198	885.45 ± 0.92
x1 = 0.7865	891.47 ± 0.95
x1 = 0.8237	895.31 ± 0.97
x1 = 0.8843	901.73 ± 1
x1 = 0.9411	907.87 ± 1
x1 = 0.9801	912 ± 1.1
